In US20250304623A1, “PEPTIDES FOR INTRACELLULAR DELIVERY” (UNIVERSIDADE DE SANTIAGO DE COMPOSTELA, priority 2022, published 2025):
Starred links: 1 amine or outer side, 2 acyl side, 3 side chain; linkers in the order of their positions; H or OH if unused. Residues, ends and D or L forms follow the SMILES beside them. Groups on a side chain read outwards from the residue. *: point of attachment. Glutaryl = O=C(CCCC(=O)[*:2])[*:1]; NHNH2 = NN*

What was measured:
Format in all cases: cell-based
[1] = system: Hela cells; assay: EGFP mRNA delivery, robotic library screening, HeLa
Protocol: Cells were seeded in a 96 well plate the day before the experiment at a concentration of 50,000 cell/mL (100 μL/w) in DMEM+10% FBS+1% Gln-Abt. For robotic library screening, the delivery of EGFP-mRNA (from TriLink, fully substituted with 5-methoxyuridine, capped and polyadenylated; TriLink, CleanCap® EGFP mRNA (5moU), ref. L-7201) in six different cell lines was performed. Amphiphilic molecule stock solutions were prepared in DMSO as described above and diluted in DMEM to afford a range of concentrations. The solutions of EGFP-mRNA/amphiphilic molecule complexes were freshly prepared prior to the transfection experiments. 35 μL of the corresponding amphiphile were added to 10 μL of a solution of EGFP-mRNA at 10 ng/μL in DMEM. The mixture was shaken for 30 min at room temperature before the addition to the cells. The cell medium was aspirated, and cells were washed with PBS twice. Cells were covered with 39 μL of DMEM and 11 μL of the complex's solution were added to the cells and incubated for 4 h (final concentration of peptide=2.5, 5 and 10 μM; final concentration of EGFP-mRNA=25 ng/well). After the incubation, the medium was replaced by 100 μL of fresh DMEM supplemented with 10% FBS. The total EGFP fluorescence was quantified after 72 h in a well plate reader. Amphiphile transfection efficiency was compared and normalized to Lipofectamine® MessengerMax efficiency (value of 1 in Tables 1-5 and 7; double underlined numbers). All experiments were done in triplicate.
(§1) Tables 1-7: RLuc (pDNA) or EGFP (mRNA) expression levels were normalized to Lipofectamine reagents (value=1) and expressed as fold-times signal increase. In the case of siRNA, the siRNA treated cells fluorescence was compared with siMOCK control fluorescence, while Cas9-RNP mediated knockout was measured against the fluorescence of untreated cells. In both siRNA and Cas9-RNP, values are expressed as % fluorescence reduction. Amphiphile concentration was 5 μM in all cases. All experiments were performed in triplicate.
Tables 14-19 show the mean (triplicates) fluorescence intensity measured after the transfection of EGFP mRNA by different amphiphiles at different concentrations in a variety of cell lines. Background fluorescence values, accounted by untreated control cells, were subtracted for processing.

[2] = system: Hela cells expressing EGFP; assay: Cas9-RNP delivery against EGFP (gene editing, plate reader), HeLa; settings: for % GFP silencing due to gene editing (Cas9-RNP): HeLa
Protocol: (§2) To generate an EGFP expressing HeLa cell line, HeLa cells were transfected with EGFP pDNA (pEGFP-C1, Clontech) and stable transfectants were selected with 400 μg/mL of G-418 (Millipore). Green clones were selected by epifluorescence microscopy and tested for EGFP expression stability through several passages. […] All other EGFP-expressing cell lines were obtained in a similar way from parent non-EGFP-expressing cell lines.
Cells expressing EGFP were seeded in a 96 well plate the day before the experiment at a concentration of 50,000 cell/mL (100 μL/w) in DMEM+10% FBS+1% Gln-Abt. For robotic library screening, the delivery of Cas9-RNP against EGFP (RNP designed to knock-out the gene encoding for the enhanced green fluorescent protein (EGFP)) was performed. For RNP assembly, 9.2 μL of crRNA and 9.2 μL of tracrRNA were mixed in 211.6 μL of Nuclease-Free Duplex Buffer (IDT), incubated for 5 min at 95° C. and slowly cooled at rt (see I. Lostalé-Seijo, et al. Peptide/Cas9 nanostructures for ribonucleoprotein cell membrane transport and gene edition, Chem. Sci., 2017). Cas9 protein was dissolved in DMEM at a final concentration of 4 μM and equal volumes of the RNA complex and Cas9 were mixed and incubated for 5 min at rt. 75 μL of the corresponding amphiphile concentrations were added to 5 μL of RNP at 2 μM. The mixture was shaken for 30 min at room temperature before the addition to the cells. The cell medium was aspirated, and cells were washed twice with PBS. Cells were covered with 30 μL of DMEM and 20 μL of the RNP/amphiphile complexes were added to the cells (final peptide concentrations=2.5, 5 and 10 μM; final Cas9-RNP concentration=50 nM) and incubated for 4 h. After the incubation, the medium was replaced by 100 μL of fresh DMEM supplemented with 10% FBS. The total EGFP fluorescence was quantified after 72 h in a plate reader (FIG. 2, Table 1 (right) and Table 6). All experiments were done in triplicate.
as §1
Tables 26-31 show the mean (triplicates) percentage of gene editing, accounted by GFP fluorescence intensity decrease (% of reduction), measured after the transfection of Cas9-RNP by different amphiphiles at different concentrations in a variety of cell lines. Background values, accounted by untreated control cells, were subtracted for processing.

[3] = system: HepG2 cells expressing EGFP; assay: EGFP-targeting siRNA delivery (GFP silencing vs siMOCK), HepG2
Protocol: as §2
Cells expressing EGFP were seeded in a 96 well plate the day before the experiment at a concentration of 50,000 cell/mL (100 μL/w) in DMEM+10% FBS+1% Gln-Abt. For robotic library screening, the delivery of an EGFP-targeting siRNA (EGFP: enhanced green fluorescent protein, Ambion® Silencer® GFP Positive Control siRNA (siGFP) (AM4626)) in six different cell lines expressing EGFP was performed. […] The mixture was shaken for 30 min at room temperature (rt) before the addition to the cells. The cell medium was aspirated, and cells were washed twice with PBS. Finally, 50 μL of the solution of siRNA/amphiphile complexes were added to the cells and incubated for 4 h. After transfection, the medium was replaced by 100 μL of fresh DMEM supplemented with 10% FBS. The fluorescence knockdown was quantified after 72 h in a plate reader, by comparison with cells transfected with a non-targeting siRNA control (siMOCK, Silencer™ Negative Control No. 1 siRNA (siMOCK) (AM4611)). EGFP knockdown was compared with Lipofectamine® RNAiMAX silencing efficiency (30-60% depending on cell line, defined with a numeric value in the below tables). All experiments were done in triplicate.
as §1
Tables 20-25 show the mean (triplicates) percentage of GFP-silencing, accounted by fluorescence intensity decrease relative to a non-targeting siRNA (siMOCK) control, measured after the transfection of siRNA by different amphiphiles at different concentrations in a variety of cell lines. Background values, accounted by untreated control cells, were subtracted for processing.

[4] = Petroselinyl, 10 μM, Hela cells

Ac-RK*LRRK*LRK*-NH2 (Ac-RK(NHNH2)LRRK(NHNH2)LRK(NHNH2)-NH2; not fully specified; printed as Ac-RK*LRRK*LRK*-NH2; also: K*2,K*6,K*9: native or modified lysine (ε-amide to a linker)) [Peptide 9.3]
mean fluorescence intensity (EGFP mRNA) ([1]; HeLa, Dodecanal, 2.5 μM): 2347
mean fluorescence intensity (EGFP mRNA) ([1]; HeLa, Dodecanal, 5 μM): 3482
mean fluorescence intensity (EGFP mRNA) ([1]; HeLa, Myristoleyl, 2.5 μM): 11661
mean fluorescence intensity (EGFP mRNA) ([1]; HeLa, Oleyl, 5 μM): 441
mean fluorescence intensity (EGFP mRNA) ([1]; HeLa, Petroselinyl, 10 μM): 1322
mean fluorescence intensity (EGFP mRNA) ([1]; Hela, Myristoleyl, 5 μM): 2874
mean fluorescence intensity (EGFP mRNA) ([1]; Hela, Oleyl, 10 μM): 335
mean fluorescence intensity (EGFP mRNA) ([1]; Hela, Palmitoleyl, 5 μM): 3313
mean fluorescence intensity (EGFP mRNA) ([1]; Hela, Petroselinyl, 5 μM): 9616
percentage of gene editing, GFP fluorescence intensity decrease (% of reduction) ([2]; Dodecanal, 5 μM, Hela cells): 25%
percentage of gene editing, GFP fluorescence intensity decrease (% of reduction) ([2]; Dodecanal, 10 μM, HeLa cells): 61%
percentage of gene editing, GFP fluorescence intensity decrease (% of reduction) ([2]; Dodecanal, 15 μM, Hela cells): 80%
% GFP silencing due to gene editing (Cas9-RNP) ([2]; 5 μM, Dod tail): 80%
% GFP silencing due to gene editing (Cas9-RNP) ([2]; 5 μM, Pal tail): 77%
percentage of gene editing, GFP fluorescence intensity decrease (% of reduction) ([2]; Myristoleyl, 5 μM, HeLa cells): 14%
percentage of gene editing, GFP fluorescence intensity decrease (% of reduction) ([2]; Myristoleyl, 15 μM, Hela cells): 81%
percentage of gene editing, GFP fluorescence intensity decrease (% of reduction) ([2]; Oleyl, 5 μM, HeLa cells): 11%
percentage of gene editing, GFP fluorescence intensity decrease (% of reduction) ([2]; Oleyl, 10 μM, HeLa cells): 26%
percentage of gene editing, GFP fluorescence intensity decrease (% of reduction) ([2]; Palmitoleyl, 10 μM, HeLa cells): 44%
percentage of gene editing, GFP fluorescence intensity decrease (% of reduction) ([2]; Palmitoleyl, 15 μM, Hela cells): 77%
percentage of gene editing, GFP fluorescence intensity decrease (% of reduction) [2, 4]: 49%
percentage of gene editing, GFP fluorescence intensity decrease (% of reduction) ([2]; Petroselinyl, 15 μM, Hela cells): 77%
percentage of GFP-silencing relative to siMOCK ([3]; Myristoleyl, 5 μM): −11%
percentage of GFP-silencing relative to siMOCK ([3]; Myristoleyl, 15 μM): 6%
percentage of GFP-silencing relative to siMOCK ([3]; Oleyl, 10 μM): −9%
percentage of GFP-silencing relative to siMOCK ([3]; Palmitoleyl, 5 μM): −2%
percentage of GFP-silencing relative to siMOCK ([3]; Palmitoleyl, 15 μM): −2%
percentage of GFP-silencing relative to siMOCK ([3]; Petroselinyl, 15 μM): −3%

CC(=O)N[C@@H](CCCNC(=N)N)C(=O)N[C@@H](CCCCNC(=O)CCCC(=O)NN)C(=O)N[C@@H](Cc1c[nH]cn1)C(=O)N[C@@H](CCCNC(=N)N)C(=O)N[C@@H](CCCCNC(=O)CCCC(=O)NN)C(=O)N[C@@H](CCCCNC(=O)CCCC(=O)NN)C(=O)N[C@@H](Cc1c[nH]cn1)C(N)=O [7.3(L-H), Ac-RK*HRK*K*H-NH2] (Ac-RK([Glutaryl-NHNH2])HRK([Glutaryl-NHNH2])K([Glutaryl-NHNH2])H-NH2)
mean fluorescence intensity (EGFP mRNA) ([1]; HeLa, Myristoleyl, 2.5 μM): 30978
mean fluorescence intensity (EGFP mRNA) ([1]; HeLa, Oleyl, 2.5 μM): 13495
mean fluorescence intensity (EGFP mRNA) ([1]; HeLa, Oleyl, 5 μM): 16633
mean fluorescence intensity (EGFP mRNA) ([1]; HeLa, Palmitoleyl, 2.5 μM): 46778
mean fluorescence intensity (EGFP mRNA) ([1]; HeLa, Petroselinyl, 2.5 μM): 15046
mean fluorescence intensity (EGFP mRNA) ([1]; HeLa, Petroselinyl, 10 μM): 2234
mRNA delivery relative to Lipofectamine MessengerMAX ([1]; HeLa, myristoleyl, palmitoleyl or petroselinyl aldehydes): between two and three times better
mean fluorescence intensity (EGFP mRNA) ([1]; Hela, Myristoleyl, 5 μM): 3346
mean fluorescence intensity (EGFP mRNA) ([1]; Hela, Palmitoleyl, 5 μM): 21109
mean fluorescence intensity (EGFP mRNA) ([1]; Hela, Palmitoleyl, 10 μM): 1577
mean fluorescence intensity (EGFP mRNA) ([1]; Hela, Petroselinyl, 5 μM): 28395
percentage of gene editing, GFP fluorescence intensity decrease (% of reduction) ([2]; Dodecanal, 10 μM, HeLa cells): −8%
percentage of gene editing, GFP fluorescence intensity decrease (% of reduction) ([2]; Dodecanal, 15 μM, Hela cells): −21%
percentage of gene editing, GFP fluorescence intensity decrease (% of reduction) ([2]; Myristoleyl, 5 μM, HeLa cells): 39%
percentage of gene editing, GFP fluorescence intensity decrease (% of reduction) ([2]; Myristoleyl, 10 μM, HeLa cells): 22%
percentage of gene editing, GFP fluorescence intensity decrease (% of reduction) ([2]; Myristoleyl, 15 μM, Hela cells): 18%
percentage of gene editing, GFP fluorescence intensity decrease (% of reduction) ([2]; Oleyl, 5 μM, HeLa cells): 16%
percentage of gene editing, GFP fluorescence intensity decrease (% of reduction) ([2]; Oleyl, 10 μM, HeLa cells): 13%
percentage of gene editing, GFP fluorescence intensity decrease (% of reduction) ([2]; Oleyl, 15 μM, Hela cells): 22%
percentage of gene editing, GFP fluorescence intensity decrease (% of reduction) ([2]; Palmitoleyl, 5 μM, HeLa cells): 55%
percentage of gene editing, GFP fluorescence intensity decrease (% of reduction) ([2]; Palmitoleyl, 10 μM, HeLa cells): 28%
percentage of gene editing, GFP fluorescence intensity decrease (% of reduction) ([2]; Palmitoleyl, 15 μM, Hela cells): 17%
percentage of gene editing, GFP fluorescence intensity decrease (% of reduction) ([2]; Petroselinyl, 5 μM, HeLa cells): 46%
percentage of gene editing, GFP fluorescence intensity decrease (% of reduction) [2, 4]: 14%
percentage of GFP-silencing relative to siMOCK ([3]; Myristoleyl, 15 μM): −13%
percentage of GFP-silencing relative to siMOCK ([3]; Oleyl, 10 μM): −9%
percentage of GFP-silencing relative to siMOCK ([3]; Palmitoleyl, 15 μM): 10%
percentage of GFP-silencing relative to siMOCK ([3]; Petroselinyl, 15 μM): 1%

Ac-RHLK*RHK*RRLK*RH-NH2 (Ac-RHLKRHKRRLKRH-NH2; not fully specified (residues 4, 7, 11); printed as Ac-RHLK*RHK*RRLK*RH-NH2; also: linker on K* not given here) [13(3His)]
mean fluorescence intensity (EGFP mRNA) ([1]; HeLa, Myristoleyl, 2.5 μM): 621
mean fluorescence intensity (EGFP mRNA) ([1]; HeLa, Petroselinyl, 2.5 μM): 640
mean fluorescence intensity (EGFP mRNA) ([1]; HeLa, Petroselinyl, 10 μM): 178
mean fluorescence intensity (EGFP mRNA) ([1]; Hela, Petroselinyl, 5 μM): 208
percentage of gene editing, GFP fluorescence intensity decrease (% of reduction) ([2]; Myristoleyl, 5 μM, HeLa cells): 18%
percentage of GFP-silencing relative to siMOCK ([3]; Myristoleyl, 10 μM): 8%
percentage of GFP-silencing relative to siMOCK ([3]; Palmitoleyl, 10 μM): 6%
percentage of GFP-silencing relative to siMOCK ([3]; Petroselinyl, 5 μM): −1%
percentage of GFP-silencing relative to siMOCK ([3]; Petroselinyl, 10 μM): 19%
